Measurements taken from patent publication EP4741392A1, “1H-PYRAZOLO[4,3-C]PYRIDINE COMPOUND, AND COMPOSITION THEREOF AND USE THEREOF” (Shenzhen TargetRx Co., Ltd., priority 2023, dated 2025).

Experiments:
Format in all cases: cell-based
[1] = tested on: NIH/3T3 BTK C481S cells; test: Phosphor-BTK(Y223) assay, adherent cells; conditions: Mus musculus, NIH3T3, phosphorylated BTK Y223, NIH/3T3 BTK C481S cells; read-out: NIH/3T3 BTK-C481S pBTK
Method in brief: (§1)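 NIH/3T3 cells expressing WT or C481S BTK were pretreated with compound for 0.5 h at 37 °C, then stimulated with 1 mM Na3VO4 (final) for 2 h. Lysates were assayed by HTRF for p-BTK Y223 using the 665/620 nm ratio. IC50 was obtained by nonlinear fit of % inhibition versus 0.5% DMSO control.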

[2] = tested on: NIH/3T3 BTK WT cells; test: Phosphor-BTK(Y223) assay, adherent cells; conditions: Mus musculus, NIH3T3, phosphorylated BTK Y223, NIH/3T3 BTK WT cells; read-out: NIH/3T3 BTK-WT pBTK
Method in brief: as §1

[3] = tested on: Ramos cells with BTK WT; test: Phosphor-BTK(Y223) assay, suspended cells; conditions: Homo sapiens, Ramos, phosphorylated BTK Y223, Ramos cells with BTK WT
Method in brief: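 Ramos BTK WT cells (2.5 k/well) were treated with compound dilutions for 2 h at 37 °C, then 5 mM Na3VO4 for 3 h. Lysates were read by HTRF p-BTK(Y223) cryptate/d2 antibodies overnight at RT (665/620 ratio). IC50 came from a four-parameter fit of % inhibition versus blank and positive-control wells.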

Structure (SMILES)	IC50 [3] [nM]	IC50 [1] [nM]	IC50 [2] [nM]
COc1ccc(F)cc1C(=O)NCc1ccc(-c2ncc(-c3ncc(C(F)(F)F)cn3)c3[nH]nc(N)c23)cc1 [Example 42, N-(4-(3-amino-7-(5-(trifluoromethyl)pyrimidin-2-yl)-1H-pyrazolo[4,3-c]pyridin-4-yl)benzyl)-5-fluoro-2-methoxybenzamide]	10 to 50	10 to 50	≤ 5
COc1ccc(F)cc1C(=O)NCc1ccc(-c2ncc(-c3cc4ncccn4n3)c3[nH]nc(N)c23)cc1 [Example 44, N-(4-(3-amino-7-(pyrazolo[1,5-a]pyrimidin-2-yl)-1H-pyrazolo[4,3-c]pyridin-4-yl)benzyl)-5-fluoro-2-methoxybenzamide]	≤ 5	≤ 5	≤ 5
CCOC(=O)c1cnc2cc(-c3cnc(-c4ccc(CNC(=O)c5cc(F)ccc5OC)cc4)c4c(N)n[nH]c34)nn2c1 [Example 45, ethyl 2-(3-amino-4-(4-((5-fluoro-2-methoxybenzoylamino)methyl)phenyl)-1H-pyrazolo[4,3-c]pyridin-7-yl)pyrazolo[1,5-a]pyrimidine-6-carboxylate]	> 50	10 to 50	10 to 50
COc1ccc(F)cc1C(=O)NCc1ccc(-c2ncc(-c3ccn4nccc4n3)c3[nH]nc(N)c23)cc1 [Example 46, N-(4-(3-amino-7-(pyrazolo[1,5-a]pyrimidin-5-yl)-1H-pyrazolo[4,3-c]pyridin-4-yl)benzyl)-5-fluoro-2-methoxybenzamide]	≤ 5	5 to 10	≤ 5
COc1ccc(F)cc1C(=O)NCc1ccc(-c2ncc(-c3ccc4cn[nH]c4n3)c3[nH]nc(N)c23)cc1 [Example 47, N-(4-(3-amino-7-(1H-pyrazolo[3,4-b]pyridin-6-yl)-1H-pyrazolo[4,3-c]pyridin-4-yl)benzyl)-5-fluoro-2-methoxybenzamide]	5 to 10	10 to 50	5 to 10
COc1ccc(F)cc1C(=O)NCc1ccc(-c2ncc(-c3cn4ccnc4cn3)c3[nH]nc(N)c23)cc1 [Example 50, N-(4-(3-amino-7-(imidazo[1,2-a]pyrazin-6-yl)-1H-pyrazolo[4,3-c]pyridin-4-yl)benzyl)-5-fluoro-2-methoxybenzamide]	5 to 10	5 to 10	≤ 5
COc1ccc(F)cc1C(=O)NCc1ccc(-c2ncc(-c3ccc4nccn4n3)c3[nH]nc(N)c23)cc1 [Example 51, N-(4-(3-amino-7-(imidazo[1,2-b]pyridazin-6-yl)-1H-pyrazolo[4,3-c]pyridin-4-yl)benzyl)-5-fluoro-2-methoxybenzamide]	5 to 10	5 to 10	≤ 5
COc1ccc(F)cc1C(=O)NCc1ccc(-c2ncc(-c3ccc(C(=O)N4C[C@H](C)O[C@@H](C)C4)cn3)c3[nH]nc(N)c23)cc1 [Example 53, N-(4-(3-amino-7-(5-((2S,6S)-2,6-dimethylmorpholine-4-carbonyl)pyridin-2-yl)-1H-pyrazolo[4,3-c]pyridin-4-yl)benzyl)-5-fluoro-2-methoxybenzamide]	5 to 10	≤ 5	≤ 5
COc1ccc(F)cc1C(=O)NCc1ccc(-c2ncc(-c3ccc(C(=O)N4C[C@@H](C)O[C@H](C)C4)cn3)c3[nH]nc(N)c23)cc1 [Example 54, N-(4-(3-amino-7-(5-((2R,6R)-2,6-dimethylmoroholine-4-carbonyl)pyridin-2-yl)-1H-pyrazolo[4,3-c]pyridin-4-yl)benzyl)-5-fluoro-2-methoxybenzamide]	≤ 5	≤ 5	≤ 5
COc1ccc(F)cc1C(=O)NCc1ccc(-c2ncc(-c3ccc(P(C)(C)=O)cn3)c3[nH]nc(N)c23)cc1 [Example 56, N-(4-(3-amino-7-(5-(dimethylphosphoryl)pyridin-2-yl)-1H-pyrazolo[4,3-c]pyridin-4-yl)benzyl)-5-fluoro-2-methoxybenzamide]	≤ 5	> 50	> 50
COc1ccc(F)cc1C(=O)NCc1ccc(-c2ncc(-c3nc4cnccn4n3)c3[nH]nc(N)c23)cc1 [Example 57, N-(4-(7-([1,2,4]triazolo[1,5-a]pyrazin-2-yl)-3-amino-1H-pyrazolo[4,3-c]pyridin-4-yl)benzyl)-5-fluoro-2-methoxybenzamide]	10 to 50	5 to 10	≤ 5
COc1ccc(F)cc1C(=O)NCc1ccc(-c2ncc(-c3nc4ccccn4n3)c3[nH]nc(N)c23)cc1 [Example 58, N-(4-(7-([1,2,4]triazolo[1,5-a]pyridin-2-yl)-3-amino-1H-pyrazolo[4,3-c]pyridin-4-yl)benzyl)-5-fluoro-2-methoxybenzamide]	≤ 5	≤ 5	≤ 5
COCCOc1ccc(-c2cnc(-c3ccc(CNC(=O)c4cc(F)ccc4OC)cc3)c3c(N)n[nH]c23)nc1 [Example 59, N-(4-(3-amino-7-(5-(2-methoxyethoxy)pyridin-2-yl)-1H-pyrazolo[4,3-c]pyridin-4-yl)benzyl)-5-fluoro-2-methoxybenzamide]	≤ 5	≤ 5	≤ 5
COc1ccc(F)cc1C(=O)NCc1ccc(-c2ncc(-c3ccc(OCCN(C)C)cn3)c3[nH]nc(N)c23)cc1 [Example 60, N-(4-(3-amino-7-(5-(2-(dimethylamino)ethoxy)pyridin-2-yl)-1H-pyrazolo[4,3-c]pyridin-4-yl)benzyl)-5-fluoro-2-methoxybenzamide]	≤ 5	≤ 5	≤ 5
COc1ccc(F)cc1C(=O)NCc1ccc(-c2ncc(-c3ccc(C(C)(C)O)cn3)c3[nH]nc(N)c23)cc1 [Example 65, N-(4-(3-amino-7-(5-(2-hydroxypropan-2-yl)pyridin-2-yl)-1H-pyrazolo[4,3-c]pyridin-4-yl)benzyl)-5-fluoro-2-methoxybenzamide]	≤ 5	5 to 10	≤ 5
COc1ccc(F)cc1C(=O)NCc1ccc(-c2ncc(-c3cc4ccccn4n3)c3[nH]nc(N)c23)cc1 [Example 69, N-(4-(3-amino-7-(pyrazolo[1,5-a]pyridin-2-yl)-1H-pyrazolo[4,3-c]pyridin-4-yl)benzyl)-5-fluoro-2-methoxybenzamide]	≤ 5	≤ 5	≤ 5

Second part, led by results:

IC50 [3] [nM]	Structure (SMILES)	IC50 [1] [nM]	IC50 [2] [nM]
≤ 5	COc1ccc(F)cc1C(=O)NCc1ccc(-c2ncc(-c3ccc(C4COC4)cn3)c3[nH]nc(N)c23)cc1 [Example 43, N-(4-(3-amino-7-(5-(oxetan-3-yl)pyridin-2-yl)-1H-pyrazolo[4,3-c]pyridin-4-yl)benzyl)-5-fluoro-2-methoxybenzamide]	≤ 5	≤ 5
≤ 5	COc1ccc(F)cc1C(=O)NCc1ccc(-c2ncc(-c3ccc(C(F)F)cn3)c3[nH]nc(N)c23)cc1 [Example 48, N-(4-(3-amino-7-(5-(difluoromethyl)pyridin-2-yl)-1H-pyrazolo[4,3-c]pyridin-4-yl)benzyl)-5-fluoro-2-methoxybenzamide]	≤ 5	≤ 5
≤ 5	COc1ccc(F)cc1C(=O)NCc1ccc(-c2ncc(-c3ccc(C(=O)N4CCOCC4)cn3)c3[nH]nc(N)c23)cc1 [Example 52, N-(4-(3-amino-7-(5-(morpholine-4-carbonyl)pyridin-2-yl)-1H-pyrazolo[4,3-c]pyridin-4-yl)benzyl)-5-fluoro-2-methoxybenzamide]	≤ 5	≤ 5
≤ 5	COc1ccc(F)cc1C(=O)NCc1ccc(-c2ncc(-c3ccc(OCCN4CCOCC4)cn3)c3[nH]nc(N)c23)cc1 [Example 61, N-(4-(3-amino-7-(5-(2-morpholinoethoxy)pyridin-2-yl)-1H-pyrazolo[4,3-c]pyridin-4-yl)benzyl)-5-fluoro-2-methoxybenzamide]	≤ 5	≤ 5
5 to 10	COc1ccc(F)cc1C(=O)NCc1ccc(-c2ncc(-c3ccc(OCCN4CCCC4)cn3)c3[nH]nc(N)c23)cc1 [Example 62, N-(4-(3-amino-7-(5-(2-(pyrrolidin-1-yl)ethoxy)pyridin-2-yl)-1H-pyrazolo[4,3-c]pyridin-4-yl)benzyl)-5-fluoro-2-methoxybenzamide]	≤ 5	≤ 5
5 to 10	COc1ccc(F)cc1C(=O)NCc1ccc(-c2ncc(-c3ccc(CN4CCCCC4)cn3)c3[nH]nc(N)c23)cc1 [Example 66, N-(4-(3-amino-7-(5-(piperidin-1-ylmethyl)pyridin-2-yl)-1H-pyrazolo[4,3-c]pyridin-4-yl)benzyl)-5-fluoro-2-methoxybenzamide]	≤ 5	≤ 5
≤ 5	COc1ccc(F)cc1C(=O)NCc1ccc(-c2ncc(-c3ccc(CN4CCOCC4)cn3)c3[nH]nc(N)c23)cc1 [Example 67, N-(4-(3-amino-7-(5-(morpholinomethyl)pyridin-2-yl)-1H-pyrazolo[4,3-c]pyridin-4-yl)benzyl)-5-fluoro-2-methoxybenzamide]	≤ 5	≤ 5
≤ 5	COc1ccc(F)cc1C(=O)NCc1ccc(-c2ncc(-c3ccc(CN4CCN(C)CC4)cn3)c3[nH]nc(N)c23)cc1 [Example 68, N-(4-(3-amino-7-(5-((4-methylpiperazin-1-yl)methyl)pyridin-2-yl)-1H-pyrazolo[4,3-c]pyridin-4-yl)benzyl)-5-fluoro-2-methoxybenzamide]	≤ 5	≤ 5
